Source: patent US9840500B2, “Compounds as dual inhibitors of histone methyltransferases and DNA methyltransferases” (FUNDACIÓN PARA LA INVESTIGACIÓN MÉDICA APLICADA, priority 2014, dated 2017)

Tests used:
DNMT3B/3L = DNMT3B/3L (Homo sapiens, UniProt Q9UBC3); test: DNMT3B enzyme activity assay (chemiluminescence BPS DNMT Universal Assay Kit); format: biochemical
Protocol: DNMT3A and DNMT3B activity assays were carried out with the chemiluminiscence BPS DNMT Universal Assay Kit (BPS#52035) using a strip 96-well plate pre-coated with DNMT substrate.
The enzyme activity assay protocol is as follows: • Rehydrate the microwells by adding 150 μL of TBST buffer (1× Tris-buffered saline (TBS), pH 8.0, containing 0.05% Tween-20) to every well. Incubate 15 minutes at room temperature. • Dilute each purified DNMT [DNMT3A/3L (BPS#51106) or DNMT3B/3L (BPS#51109)] in 1×DNMT assay buffer 2 (BPS#52201) at 5-10 ng/μL. Keep diluted enzyme on ice until use. • Prepare 50 μL of reaction mixture consisting of 20 μL of DNMT (5-10 ng/μL), 12.5 μL of 4×DNMT assay buffer 2 (BPS#52201), 2.5 μL of S-adenosylmethionine 400 μM, test compound at concentrations ranging from 3 nM to 10 μM and H2O up to 50 μL. • Add the entire reaction mixture to the substrate coated wells. […]
Incubate for 30 min at room temperature with slow shaking. • Wash plate three times with TBST buffer and incubate in Blocking buffer shaking on a rotating platform for 10 min. […] Immediately read luminescence using a BioTek Synergy™2 microplate reader.
The chemiluminescence intensity data were analyzed and compared. […] Calculated IC50 values were determined using non-linear regression analysis of Sigmoidal dose-response curve generated with a four-parameters inhibition curve.

LAL-CUN-2 = test: Cell proliferation assay, LAL-CUN-2 (ALL); format: cell-based
Protocol: (§1) Cell proliferation was analyzed after 48 hours of in vitro treatment using the CellTiter 96 Aqueous One Solution Cell Proliferation Assay (Promega, Madison, Wis.). This is a colorimetric method for determining the number of viable cells in proliferation.
(§2) For the assay, suspension cells were cultured by triplicate at a density of 1×10^6 cells/ml in 96-well plates (100.000 cells/well, 100 μl/well), except for OCILY-3 and OCILY-10 cell lines which were cultured at a density of 0.5×10^6 cells/ml (50.000 cells/well, 100 μl/well) and for HepG2, Hep3B and PLC/PRF/5 cell ines which were cultured at a density of 3000 cells/well, 100 μl/well). Adherent cells were obtained from 80-90% confluent flasks and 100 μl of cells were seeded at a density of 5000 cells/well in 96-well plates by triplicate. Before addition of the compounds, adherent cells were allowed to attach to the bottom of the wells for 12 hours. In all cases, only the 60 inner wells were used to avoid any border effects.
(§3) After 48 hours of treatment, plates with suspension cells were centrifuged at 800 g for 10 minutes and medium was removed. The plates with adherent cells were flicked to remove medium. Then, cells were incubated with 100 ul/well of medium and 20 ul/well of CellTiter 96 Aqueous One Solution reagent. After 1-3 hours of incubation at 37° C., absorbance was measured at 490 nm in a 96-well plate reader. The background absorbance was measured in wells with only cell line medium and solution reagent. Data was calculated as a percentage of total absorbance of treated cell/absorbance of non treated cells.

OCI-Ly3 = test: Cell proliferation assay, OCI-Ly3 (ABC-DLBCL); format: cell-based; conditions: Homo sapiens, 48 hours of treatment, Table 3
MGH-U3 = test: Cell proliferation assay, MGH-U3 (Bladder); format: cell-based; conditions: 48 hours
Protocol: as §1
as §2, with “In all cases, only the 60 inner wells were used to avoid any border effects.” left out
as §3, with “The plates with adherent cells were flicked to remove medium. Then, cells were incubated with 100 ul/well of medium and 20 ul/well of CellTiter 96 Aqueous One Solution reagent.” left out, “cells. […]” for “cells.”

MGH-U4 = test: Cell proliferation assay, MGH-U4 (Bladder); format: cell-based; conditions: 48 hours
Protocol: as §1
as §2, with “In all cases, only the 60 inner wells were used to avoid any border effects.” left out
as §3, with “The plates with adherent cells were flicked to remove medium. Then, cells were incubated with 100 ul/well of medium and 20 ul/well of CellTiter 96 Aqueous One Solution reagent.” left out, “cells. […]” for “cells.”

UM-UC-7 = test: Cell proliferation assay, UM-UC-7 (Bladder); format: cell-based; conditions: 48 hours
Protocol: as §1
as §2, with “In all cases, only the 60 inner wells were used to avoid any border effects.” left out
as §3, with “The plates with adherent cells were flicked to remove medium. Then, cells were incubated with 100 ul/well of medium and 20 ul/well of CellTiter 96 Aqueous One Solution reagent.” left out, “cells. […]” for “cells.”

HELA = test: Cell proliferation assay, HELA (Cervical); format: cell-based; conditions: Homo sapiens, 48 hours
Protocol: as §1
as §2, with “In all cases, only the 60 inner wells were used to avoid any border effects.” left out
as §3, with “The plates with adherent cells were flicked to remove medium. Then, cells were incubated with 100 ul/well of medium and 20 ul/well of CellTiter 96 Aqueous One Solution reagent.” left out, “cells. […]” for “cells.”

Sk-Hep1 = test: Cell proliferation assay, Sk-Hep1 (Hepatocarcinoma); format: cell-based; conditions: Homo sapiens, 48 hours
Protocol: as §1
as §2, with “In all cases, only the 60 inner wells were used to avoid any border effects.” left out
as §3, with “The plates with adherent cells were flicked to remove medium. Then, cells were incubated with 100 ul/well of medium and 20 ul/well of CellTiter 96 Aqueous One Solution reagent.” left out, “cells. […]” for “cells.”

1205-LU = test: Cell proliferation assay, 1205-LU (Melanoma); format: cell-based; conditions: Homo sapiens, 48 hours
Protocol: as §1
as §2, with “In all cases, only the 60 inner wells were used to avoid any border effects.” left out
as §3, with “The plates with adherent cells were flicked to remove medium. Then, cells were incubated with 100 ul/well of medium and 20 ul/well of CellTiter 96 Aqueous One Solution reagent.” left out, “cells. […]” for “cells.”

451-LU = test: Cell proliferation assay, 451-LU (Melanoma); format: cell-based; conditions: 48 hours
Protocol: as §1
as §2, with “In all cases, only the 60 inner wells were used to avoid any border effects.” left out
as §3, with “The plates with adherent cells were flicked to remove medium. Then, cells were incubated with 100 ul/well of medium and 20 ul/well of CellTiter 96 Aqueous One Solution reagent.” left out, “cells. […]” for “cells.”

A375 = test: Cell proliferation assay, A375 (Melanoma); format: cell-based; conditions: Homo sapiens, A-375, 48 hours
Protocol: as §1
as §2, with “In all cases, only the 60 inner wells were used to avoid any border effects.” left out
as §3, with “The plates with adherent cells were flicked to remove medium. Then, cells were incubated with 100 ul/well of medium and 20 ul/well of CellTiter 96 Aqueous One Solution reagent.” left out, “cells. […]” for “cells.”

SK-MEL-147 = test: Cell proliferation assay, SK-MEL-147 (Melanoma); format: cell-based; conditions: Homo sapiens, 48 hours
Protocol: as §1
as §2, with “In all cases, only the 60 inner wells were used to avoid any border effects.” left out
as §3, with “The plates with adherent cells were flicked to remove medium. Then, cells were incubated with 100 ul/well of medium and 20 ul/well of CellTiter 96 Aqueous One Solution reagent.” left out, “cells. […]” for “cells.”

SU8686 = test: Cell proliferation assay, SU8686 (Pancreas); format: cell-based; conditions: Homo sapiens, SU.86.86, 48 hours
Protocol: as §1
as §2, with “In all cases, only the 60 inner wells were used to avoid any border effects.” left out
as §3, with “The plates with adherent cells were flicked to remove medium. Then, cells were incubated with 100 ul/well of medium and 20 ul/well of CellTiter 96 Aqueous One Solution reagent.” left out, “cells. […]” for “cells.”

A498 = test: Cell proliferation assay, A498 (Renal); format: cell-based; conditions: Homo sapiens, 48 hours
Protocol: as §1
as §2, with “In all cases, only the 60 inner wells were used to avoid any border effects.” left out
as §3, with “The plates with adherent cells were flicked to remove medium. Then, cells were incubated with 100 ul/well of medium and 20 ul/well of CellTiter 96 Aqueous One Solution reagent.” left out, “cells. […]” for “cells.”

HCC95 = test: Cell proliferation assay, HCC95 (small-cell lung cancer); format: cell-based; conditions: Homo sapiens, non-small-cell lung cancer, 48 hours
Protocol: as §1
as §2, with “In all cases, only the 60 inner wells were used to avoid any border effects.” left out
as §3, with “The plates with adherent cells were flicked to remove medium. Then, cells were incubated with 100 ul/well of medium and 20 ul/well of CellTiter 96 Aqueous One Solution reagent.” left out, “cells. […]” for “cells.”

MOLM-13 = test: Cell proliferation assay, MOLM-13 (AML); format: cell-based; conditions: Homo sapiens, 48 hours
Protocol: as §1
as §2, with “In all cases, only the 60 inner wells were used to avoid any border effects.” left out
as §3, with “The plates with adherent cells were flicked to remove medium. Then, cells were incubated with 100 ul/well of medium and 20 ul/well of CellTiter 96 Aqueous One Solution reagent.” left out, “cells. […]” for “cells.”

JJN3 = test: Cell proliferation assay, JJN3 (MM); format: cell-based; conditions: Homo sapiens, JJN-3, Table 5 comparison
Protocol: as §1, §2, §3

Row | SMILES | IC50 (DNMT3B/3L) | GI50 (LAL-CUN-2; 48 hours of treatment, Table 3) | GI50 (LAL-CUN-2; ALL, Table 5 comparison) | GI50 (OCI-Ly3) | GI50 (MGH-U3) | GI50 (MGH-U4) | GI50 (UM-UC-7) | GI50 (HELA) | GI50 (Sk-Hep1) | GI50 (1205-LU) | GI50 (451-LU) | GI50 (A375) | GI50 (SK-MEL-147) | GI50 (SU8686) | GI50 (A498) | GI50 (HCC95) | GI50 (MOLM-13) | GI50 (JJN3)
1 | COc1cc2c(NC3CCN(C)CC3)cc(-c3ccc(C)o3)nc2cc1OCCCN1CCCC1.O=C(O)C(F)(F)F [Compound 3-04, 6-methoxy-2-(5-methyl-2-furyl)-N-(1-methyl-4-piperidyl)-7-(3-pyrrolidin-1-ylpropoxy)quinolin-4-amine; 2,2,2-trifluoroacetic acid] | 100 to 500 nM | 100 to 1000 nM | 100 to 1000 nM | 100 to 1000 nM | 100 to 1000 nM | 100 to 1000 nM | 100 to 1000 nM | 100 to 1000 nM | 100 to 1000 nM | 100 to 1000 nM | 100 to 1000 nM | 100 to 1000 nM | 100 to 1000 nM | 1000 to 10000 nM | > 10000 nM | 100 to 1000 nM | 100 to 1000 nM | 1000 to 10000 nM
2 | COc1cc2c(NCC3CCN(C)CC3)cc(-c3ccc(C)o3)nc2cc1OCCCN1CCCC1 [Compound 3-07] | 500 to 1000 nM | 100 to 1000 nM | 100 to 1000 nM | 100 to 1000 nM | 100 to 1000 nM | 100 to 1000 nM | 100 to 1000 nM | 100 to 1000 nM | 100 to 1000 nM | ≤ 100 nM | ≤ 100 nM | ≤ 100 nM | ≤ 100 nM | 100 to 1000 nM | 100 to 1000 nM | 100 to 1000 nM | 1000 to 10000 nM | 1000 to 10000 nM
